Data set [1] can be described thus: Solubility (thermodynamic, shake-flask). The format is physicochemical. The settings on record: thermodynamic from solid; aqueous phosphate buffer (pH 7.4), 24 hours at 25° C. How it is done:
The thermodynamic solubility of a research compound is measured under standard conditions. It is a shake-flask approach that uses 10 mM DMSO solutions which are supplied from the Compound Managements liquid store and is a high throughput method. The dried compounds are equilibrated in an aqueous phosphate buffer (pH 7.4) for 24 hours at 25° C., the portion with the dissolved compound is then separated from the remains. The solutions are analyzed and quantified using UPLC/MS/MS, QC-samples are incorporated in each assay-run to ensure the quality of the assay.

In data set [2] the test system is MCF7-Tead cell line. The experiment in a line: TEAD reporter assay. Format: cell-based. The settings on record: MCF7-Tead cells, luciferase activity after 24 hours. The method, then: (§1) MCF7-Tead cell line was obtained from BPS BIOSCIENCE (catalog number 60618) and was maintained in DMEM containing 10% fetal calf serum, 2 mM glutamine, and 400 μg/ml G418. Cells were grown in a humidified incubator at 37° C. with 5% CO2. Cells were distributed to flat bottom white polystyrene TC treated 384 well plates at a density of 3,500 cells/well in 30 uL. Cells were incubated for 24 hours at 37° C. with 5% CO2. Cells were acoustically dosed using an Echo 555, with compounds serially diluted in 100% DMSO. Plates were incubated for an additional 24 hours. Cells were examined for luciferase activity through the addition of 30 μL Bright-Glo luciferase (Promega catalog number E2620). Plates were incubated for 10 minutes at room temperature and luminescence was read using Tecan plate reader. The data obtained with each compound was exported to […] software to perform curve fitting analysis.
For orientation: In a reporter assay the amount or activity of a reporter protein is the signal.

Data set [3] can be described thus: Protein binding measurements in human plasma (Hu PPB). Format: in vitro ADME. Particulars: equilibrium dialysis for 18 hours, fraction unbound. The method, then:
The automated equilibrium dialysis assay in human plasma uses the RED (Rapid Equilibrium Dialysis) Device and sample handling. The assay generally runs over two to three days including delivery of results. After dialysis for 18 hours, plasma and buffer samples are prepared for analysis by liquid chromatography and mass spectrometry. Samples are generally tested in singlicates and quantified by LC/MSMS by using a 7-point calibration curve in plasma. The compounds are pooled together in plasma pools up to 10 compounds. Three reference compounds are used in each run, Propranolol, Metoprolol and Warfarin. Warfarin is used as a control in each pool and Propranolol and Metoprolol are placed randomly in each run. An in-house Excel macro is used for preparation of files for the robot and the mass spectrometer and is also used for the calculations of fraction unbound (fu %) in plasma.
In general terms: In equilibrium dialysis free small molecules cross a membrane that holds back macromolecules.

For data set [4], the system named is MCF7-Luciferase cell line. In words: Control reporter (MCF7-Luciferase). Format: cell-based. The settings on record: MCF7-Luciferase cells, luciferase activity after 24 hours. How it is done: (iii) Control Reporter (MCF7-Luciferase)
as §1, with “MCF7-Luciferase” for “MCF7-Tead”, “BPS BIOSCIENCE” left out, “SC050-L)” for “60618)”, “glutamine.” for “glutamine, and 400 μg/ml G418.”, “μL.” for “uL.”

Data set [5] addresses TEAD4(217-434) (Homo sapiens (Human), UniProt Q15561). In words: TEAD4 FRET. The format is binding. The settings on record: depalmitoylated, biotinylated TEAD4(217-434), FAM labelled Probe A, 120 min at 25° C. How it is done:
Compounds were dosed with a final DMSO concentration of 1% (v/v). Compound IC50 values were assessed following a 10-point, half-log10 dilution schema starting at 100 μM compound concentration. Specifically, human TEAD protein from TEAD4(217-434) was cloned into an overexpression vector, expressed as an N-terminal HIS-TEV-Avi-tagged fusion protein in E coli, and subsequently purified, then protein was chemically depalmitoylated & biotinylated. The assay was performed in 384-well LV plates (384-well black, medium binding, PS, HIBASE, GREINER #784076) and run in the presence and absence of the compound of interest. Each well of 5 μL assay mixture contained 10 mM Tris-HCl (pH 7.5), 100 mM NaCl, 0.05 mM EDTA, 1 mM TECP, 1% DMSO, 0.03% Pluronic acid F127, 20 nM dePal Avi TEAD4 (217-434)-depalmitoylated & biotinylated protein, 0.8 nM Streptavidin Terbium cryptate (CisBio #610SATLB), 625 nM FAM labelled Probe A. Reactions were incubated at 25° C. for 120 min before reading on a PHERASTAR FSX Plate Reader (337 520 490 HTRF module required) (Supplier BMP).
The data file from the PHERAstar FSX contains both the acceptor (520 nm) and donor channels (490 nm) (“Channel A”=acceptor channel (520 nm), “Channel B”=donor channel (490 nm)). The ratio of the donor and acceptor (Channel A/Channel B) is calculated within Genedata Assay Analyzer.
Probe A is 3′,6′-dihydroxy-3-oxo-N-{8-[2-(5-{2-[4-(trifluoromethyl)anilino]phenyl}-2H-tetrazol-2-yl)acetamido]octyl}-3H-spiro[[2]benzofuran-1,9′-xanthene]-5-carboxamide;

Values after ≈ are worked out from the molar mass of the structure shown.

TEAD4(217-434), sequence (Q15561 217-434): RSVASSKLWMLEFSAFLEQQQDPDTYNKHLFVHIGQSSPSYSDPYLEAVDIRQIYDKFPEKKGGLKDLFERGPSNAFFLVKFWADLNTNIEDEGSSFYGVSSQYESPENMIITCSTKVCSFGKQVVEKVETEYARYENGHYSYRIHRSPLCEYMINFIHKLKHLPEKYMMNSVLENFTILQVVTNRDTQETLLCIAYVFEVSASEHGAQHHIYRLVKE

In the case of `C=CC(=O)N1C[C@@H](CO)[C@H](Nc2ncc(-c3ccc(C(F)(F)F)cn3)c3ncccc23)C1` [Example 37, 1-((3R,4S)-3-(hydroxymethyl)-4-((8-(5-(trifluoromethyl)pyridin-2-yl)-1,6-naphthyridin-5-yl)amino)pyrrolidin-1-yl)prop-2-en-1-one], in data set [1], the solubility (usually the concentration that dissolves in the medium under given conditions) at 24 h came out at 155 µM (≈ 68.7 µg/mL). The IC50 (commonly the concentration that gives 50% inhibition) in data set [2] was 33 nM; in data set [4], above 31700 nM; in data set [5] it was 180 nM. Moreover, the “Hu PPB (% free)” value in data set [3] is recorded as 17.0 % free.

Compound `C=C(F)C(=O)N1C[C@H](F)[C@H](Nc2nnc(-c3ccc(C(F)(F)F)cc3)c3ncccc23)C1` [Example 5, 2-fluoro-1-((3S,4R)-3-fluoro-4-((8-(4-(trifluoromethyl)phenyl)pyrido[2,3-d]pyridazin-5-yl)amino)pyrrolidin-1-yl)prop-2-en-1-one] yielded a solubility at 24 h in data set [1] of 244 µM (≈ 110 µg/mL). In addition, the concentration for half-maximal inhibition (IC50) was 62 nM in data set [2], above 31700 nM in data set [4] and 27 nM in data set [5]. Further, in data set [3], the “Hu PPB (% free)” value worked out at 7.7 % free.

In data set [1], `C=CC(=O)N1C[C@@H](CO)[C@H](Nc2ncc(-c3ccc(C(F)(F)F)cc3)c3ncccc23)C1` [Example 24, 1-((3R,4S)-3-(hydroxymethyl)-4-((8-(4-(trifluoromethyl)phenyl)-1,6-naphthyridin-5-yl)amino)pyrrolidin-1-yl)prop-2-en-1-one] displayed a solubility at 24 h of 32 µM (≈ 14.2 µg/mL). Further, the concentration for half-maximal inhibition (IC50) is 16 nM in data set [2], above 31700 nM in data set [4] and 23 nM in data set [5]. In addition, in data set [3], the “Hu PPB (% free)” value was determined as 1.9 % free.

As for `C=C(F)C(=O)N1C[C@H](F)[C@H](Nc2nnc(-c3ccc(C(F)(F)F)cc3)c3cccnc23)C1` [Example 6, 2-fluoro-1-((3S,4R)-3-fluoro-4-((5-(4-(trifluoromethyl)phenyl)pyrido[2,3-d]pyridazin-8-yl)amino)pyrrolidin-1-yl)prop-2-en-1-one], the solubility at 24 h in data set [1] worked out at 158 µM (≈ 71 µg/mL). Moreover, the IC50 in data set [2] came to 297 nM; in data set [4], 29900 nM; in data set [5], 78 nM. The “Hu PPB (% free)” value in data set [3] was 6.2 % free.

`C=CC(=O)N1C[C@@H](CO)[C@H](Nc2nnc(-c3ccc(C(F)(F)F)cc3)c3ccccc23)C1` [Example 23, 1-((3R,4S)-3-(hydroxymethyl)-4-((4-(4-(trifluoromethyl)phenyl)phthalazin-1-yl)amino)pyrrolidin-1-yl)prop-2-en-1-one] yielded a solubility at 24 h in data set [1] of 48 µM (≈ 21.2 µg/mL). In addition, the IC50 in data set [2] was 14 nM; in data set [4], above 31700 nM; in data set [5], 42 nM. For the same compound, the “Hu PPB (% free)” value in data set [3] was determined as 4.7 % free.

As to `C=CC(=O)N1C[C@@H](CO)[C@H](Nc2ncc(-c3ccc(C(F)(F)F)cc3)c3nccnc23)C1` [Example 27, 1-((3R,4S)-3-(hydroxymethyl)-4-((8-(4-(trifluoromethyl)phenyl)pyrido[3,4-b]pyrazin-5-yl)amino)pyrrolidin-1-yl)prop-2-en-1-one], the solubility at 24 h in data set [1] was found to be 63 µM (≈ 27.9 µg/mL). For the same compound, the IC50 is 23 nM in data set [2], above 31700 nM in data set [4] and 29 nM in data set [5]. In data set [3], the “Hu PPB (% free)” value was found to be 6.0 % free.

Take `C=CC(=O)NC1(CNc2nnc(-c3ccc(C(F)(F)F)cc3)c3ccccc23)CC1` [Example 40, N-(1-(((4-(4-(trifluoromethyl)phenyl)phthalazin-1-yl)amino)methyl)cyclopropyl)acrylamide]: the solubility at 24 h in data set [1] was found to be 3 µM (≈ 1.24 µg/mL). Moreover, the IC50 is 351 nM in data set [2] and above 31700 nM in data set [4]. For the same compound, the “Hu PPB (% free)” value in data set [3] stood at 1.6 % free.

In data set [1], `C=CC(=O)N1CC[C@H](Nc2ncc(-c3ccc(C(F)(F)F)cn3)c3ncccc23)C1` [Example 38, (S)-1-(3-((8-(5-(trifluoromethyl)pyridin-2-yl)-1,6-naphthyridin-5-yl)amino)pyrrolidin-1-yl)prop-2-en-1-one] registered a solubility at 24 h of 191 µM (≈ 79 µg/mL). Besides, the IC50 in data set [2] is 34 nM; in data set [4] it was above 31700 nM. The “Hu PPB (% free)” value in data set [3] came out at 12.5 % free.

The compound `C=CC(=O)N1CC[C@H](Nc2nnc(-c3ccc(C(F)(F)F)cc3)c3ccccc23)C1` [Example 9, (S)-1-(3-((4-(4-(trifluoromethyl)phenyl)phthalazin-1-yl)amino)pyrrolidin-1-yl)prop-2-en-1-one] displayed a solubility at 24 h in data set [1] below 0.8 µM. Moreover, the IC50 in data set [2] is 60 nM; in data set [4], above 31700 nM. Besides, in data set [3], the “Hu PPB (% free)” value is 4.7 % free.

In data set [1], `C=CC(=O)N1C[C@H](F)[C@H](Nc2ncc(-c3ccc(C(F)(F)F)cc3)c3ncccc23)C1` [Example 44, 1-((3S,4R)-3-fluoro-4-((8-(4-(trifluoromethyl)phenyl)-1,6-naphthyridin-5-yl)amino)pyrrolidin-1-yl)prop-2-en-1-one] had a solubility at 24 h of 3 µM (≈ 1.29 µg/mL). For the same compound, the IC50 in data set [2] amounted to 22 nM; in data set [4], 18000 nM; in data set [5], 16 nM.

With `C=CC(=O)N1C[C@H](F)[C@H](Nc2nnc(-c3ccc(C(F)(F)F)cc3)c3cccnc23)C1` [Example 2, 1-((3S,4R)-3-fluoro-4-((5-(4-(trifluoromethyl)phenyl)pyrido[2,3-d]pyridazin-8-yl)amino)pyrrolidin-1-yl)prop-2-en-1-one], in data set [1], the solubility at 24 h came to 188 µM (≈ 81.1 µg/mL). The IC50 was 22 nM in data set [2], 12900 nM in data set [4] and 56 nM in data set [5].

In turn, `C=CS(=O)(=O)N1CC[C@H](Nc2nnc(-c3ccc(C(F)(F)F)cc3)c3ccccc23)C1` [Example 21, (S)-4-(4-(trifluoromethyl)phenyl)-N-(1-(vinylsulfonyl)pyrrolidin-3-yl)phthalazin-1-amine] returned a solubility at 24 h in data set [1] of 34 µM (≈ 15.2 µg/mL). Also, the IC50 was determined as 929 nM in data set [2], 15100 nM in data set [4] and 42 nM in data set [5].

Regarding `C=CC(=O)N1C[C@@H](F)[C@H](Nc2nnc(-c3ccc(C(F)(F)F)cc3)c3cccnc23)C1` [Example 4, 1-((3R,4R)-3-fluoro-4-((5-(4-(trifluoromethyl)phenyl)pyrido[2,3-d]pyridazin-8-yl)amino)pyrrolidin-1-yl)prop-2-en-1-one], the solubility at 24 h in data set [1] was found to be 230 µM (≈ 99.2 µg/mL). In addition, the IC50 is 192 nM in data set [2], 26000 nM in data set [4] and 410 nM in data set [5].

For `CC#CC(=O)N1CC[C@H](Nc2nnc(-c3ccc(C(F)(F)F)cc3)c3ccccc23)C1` [Example 20, (S)-1-(3-((4-(4-(trifluoromethyl)phenyl)phthalazin-1-yl)amino)pyrrolidin-1-yl)but-2-yn-1-one], the solubility at 24 h in data set [1] came to 33 µM (≈ 14 µg/mL). The values for the IC50 in data set [2] and in data set [4] were 432 nM and 22500 nM, respectively. For the same compound, the “Hu PPB (% free)” value in data set [3] came out at 2.0 % free.

The record behind these values is patent US20240116926A1, “HETEROAROMATIC COMPOUNDS” (AstraZeneca AB, priority 2022, published 2024).
